In PMC6950567, “Evaluation of Marine Diindolinonepyrane in Vitro and in Vivo: Permeability Characterization in Caco-2 Cells Monolayer and Pharmacokinetic Properties in Beagle Dogs” (Marine Drugs, 2019):
Like-named read-outs stand apart in the source and are kept apart here.

Columns and labels:
[1] = Caco-2 cells monolayer absorption and bidirectional transport experiment; assay type: in vitro ADME, human; settings: human; for Papp A→B at 2 h, 2 µM: read-out: Mean Papp AP to BL; for Papp B→A at 2 h, 2 µM: read-out: Mean Papp BL to AP; for recovery at 2 h: direction not specified, read-out: total recovery rate of control drugs
Description: (§1) The samples included three control drugs (fenoterol, propranolol, and digoxin) and 2,5-BHPA. […] For transfer in the AP→BL direction, 0.075 mL drug solution was added to the AP side as the supply pool, and 0.25 mL HBSS solution was added to the BL side as the receiving pool. In the BL→AP direction, 0.25 mL compound solution was added to the BL side as the supply pool, and 0.075 mL HBSS solution was added to the AP side as the receiving pool. The transwell plate was then cultured in an incubator at 37 °C for 2 h. Samples on the AP side and BL side were collected, respectively. Then, acetonitrile containing an internal label was added to each upper chamber to lyse transport membranes. The total recovery was calculated by collecting the amount of lead compound absorbed on the membrane surface or accumulated in the cell. Finally, the concentration of each sample was calculated as the ratio of the peak area between the compound and the inner target through mass spectrum analysis (API 4000).
(§2) Papp = (dCr/dt) × Vr/(A × C0)(2) where dCr/dt is the cumulative compound concentration per unit of time (µM/s); Vr is the volume in the receiving hole (mL); A is the transport membrane area; and C0 is the compound initiation concentration (µM).

Caco-2 cells monolayer = experiment: as above; assay type: in vitro ADME, human
Description: as §1, §2

[2] = Caco-2, 2 µM, 0.1% bull serum albumin added
[3] = 2 µM, 0.1% bull serum albumin added

In the case of `C[C@H]1O[C@@H](O[C@H]2[C@@H](O)C[C@H](O[C@H]3[C@@H](O)C[C@H](O[C@H]4CC[C@@]5(C)[C@H](CC[C@@H]6[C@@H]5C[C@@H](O)[C@]5(C)[C@@H](C7=CC(=O)OC7)CC[C@]65O)C4)O[C@@H]3C)O[C@@H]2C)C[C@H](O)[C@@H]1O` [Digoxin, digoxin, reference compound], the efflux ratio at 2 h, 2 µM [1, 2] is reported as 485, the Papp A→B at 2 h, 2 µM [1, 2] is reported as 0.023 ± 0.001 ×10⁻⁶ cm/s and the Papp B→A at 2 h, 2 µM [1, 2] is reported as 10.4 ± 0.911 ×10⁻⁶ cm/s. It also gave an efflux ratio at 2 h, 2 µM ([1]; Caco-2, 2 μM, no BSA) of 260, a Papp A→B at 2 h, 2 µM ([1]; Caco-2, 2 μM, no BSA, 2 h) of 0.033 ± 0.003 ×10⁻⁶ cm/s and a Papp B→A at 2 h, 2 µM ([1]; Caco-2, 2 μM, no BSA, 2 h) of 9.05 ± 0.62 ×10⁻⁶ cm/s. The recovery at 2 h ([1]; Caco-2, text summary, no BSA) was greater than 83%, the “Recoveries AP to BL” value (Caco-2 cells monolayer; [3]) was 84.14 ± 3.13% and the “Recoveries BL to AP” value (Caco-2 cells monolayer; [3]) was 93.35 ± 3.56%. The “Total Recoveries AP to BL” value (Caco-2 cells monolayer; [3]) was 85.37 ± 3.52%, the “Total Recoveries BL to AP” value (Caco-2 cells monolayer; [3]) was 93.43 ± 4.63% and the “Recoveries AP to BL” value (Caco-2 cells monolayer; 2 μM, no BSA) was 83.66 ± 3.14%. The “Recoveries BL to AP” value (Caco-2 cells monolayer; 2 μM, no BSA) was 82.87 ± 4.38%, the “Total Recoveries AP to BL” value (Caco-2 cells monolayer; 2 μM, no BSA) was 86.44 ± 3.51% and the “Total Recoveries BL to AP” value (Caco-2 cells monolayer; 2 μM, no BSA) was 83.31 ± 2.40%.

`CC(Cc1ccc(O)cc1)NCC(O)c1cc(O)cc(O)c1` (centres unmarked) [Fenoterol, fenoterol, reference compound] gave a Papp A→B at 2 h, 2 µM [1, 2] of 0.091 ± 0.012 ×10⁻⁶ cm/s, a Papp A→B at 2 h, 2 µM ([1]; Caco-2, 2 μM, no BSA, 2 h) of 0.055 ± 0.008 ×10⁻⁶ cm/s and a recovery at 2 h ([1]; Caco-2, no BSA) greater than 83%. For the same molecule, the “Recoveries AP to BL” value (Caco-2 cells monolayer; [3]) was 94.38 ± 5.14%, the “Total Recoveries AP to BL” value (Caco-2 cells monolayer; [3]) was 96.16 ± 6.72% and the “Recoveries AP to BL” value (Caco-2 cells monolayer; 2 μM, no BSA) was 87.67 ± 1.24%. The “Total Recoveries AP to BL” value (Caco-2 cells monolayer; 2 μM, no BSA) was 90.92 ± 4.23%.

With `CC(C)NCC(O)COc1cccc2ccccc12` (centres unmarked) [Propranolol, propranolol, reference compound] the “total recovery rate AP→BL” value (Caco-2 cells monolayer; Caco-2) was 100% and the “total recovery rate of control drugs” value (Caco-2 cells monolayer; Caco-2) was “more than 83%”.

In the case of `NNC(=O)NN1C(=O)c2cc(S(=O)(=O)[O-])cc3c(N)c(S(=O)(=O)[O-])cc(c23)C1=O.[Li+].[Li+]` [fluorescence yellow], the “Papp of fluorescence yellow” value (Caco-2 cell model) is reported as 0.15 ± 0.027 × 10^−6 cm·s^−1 and the transmittance (Caco-2 cell model) is reported as 0.04 ± 0.005%.
